Measured values taken from US6583166B1, “Triazole compounds with dopamine-D3-receptor affinity” (Abbott Laboratories, priority 1999, dated 2003).

Biological target: T1, human D3-receptor (Homo sapiens, UniProt P35462)
T1 construct: host or cells: CCL 1,3 mouse fibroblasts
Assay: D3 binding test (125iodosulpiride displacement)
Conditions: cloned human D3 receptor in CCL 1,3 mouse fibroblast membranes; 0.1 nM 125iodosulpiride; read-out: Ki value for the binding toward the D3 receptor
Protocol: Cloned human D3-receptor-expressing CCL 1,3 mouse fibroblasts, obtainable from Res. Biochemicals Internat. One Strathmore Rd., Natick, Mass. 01760-2418 USA, were used for the binding studies.
The D3-expressing cells were multiplied in RPMI-1640 containing 10% fetal calf serum (GIBCO No. 041-32400 N); 100 U of penicillin/ml and 0.2% streptomycin (GIBO BRL, Gaithersburg, Md., USA). After 48 h, the cells were washed with PBS and incubated for 5 min with 0.05% trypsin-containing PBS. After that, the solution was neutralized with medium and the cells were collected by centrifuging at 300 g. In order to lyse the cells, the pellet was washed briefly with lysis buffer (5 mM Tris-HCl, pH 7.4, containing 10% glycerol) and after that incubated, at 4° C. for 30 min, at a concentration of 10^7 cells/ml of lysis buffer. […]
For the D3-receptor binding test, the membranes were suspended in incubation buffer (50 mM Tris-HCl, pH 7.4, containing 120 mM NaCl, 5 mM KC1, 2 mM CaCl2, 2 mM MgCl2, 10 μM quinolinol, 0.1% ascorbic acid and 0.1% BSA), at a concentration of approx. 10^6 cells/250 μl of test mixture, and incubated at 30° C. […] 0.1 nM ^125iodosulpiride in the presence and absence of the test substance. The nonspecific binding was determined using 10^−6 M spiperone. […]
The Ki values were determined by means of nonlinear regression analysis using the LIGAND program. […]

T1 sequence (P35462 whole entry): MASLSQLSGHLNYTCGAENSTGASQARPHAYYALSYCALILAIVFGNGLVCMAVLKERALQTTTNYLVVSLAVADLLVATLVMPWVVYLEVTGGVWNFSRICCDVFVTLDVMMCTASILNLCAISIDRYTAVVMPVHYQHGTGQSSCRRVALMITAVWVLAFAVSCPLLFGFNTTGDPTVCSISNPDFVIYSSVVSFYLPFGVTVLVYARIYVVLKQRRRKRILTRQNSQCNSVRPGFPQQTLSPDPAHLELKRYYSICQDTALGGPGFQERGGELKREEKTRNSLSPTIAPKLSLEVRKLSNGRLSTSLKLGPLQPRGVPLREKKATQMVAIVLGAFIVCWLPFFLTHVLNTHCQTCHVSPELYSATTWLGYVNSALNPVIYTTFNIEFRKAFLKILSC

Cn1c(SCCCN2CCC3c4c(Br)cccc4CCC32)nnc1-c1ccccc1 (mixture of isomers) [Example 1, (cis/trans) 9-Bromo-3-{3-[(4-methyl-5-phenyl-4H-1,2,4-triazol-3-yl)sulfanyl]propyl}-2,3,3a,4,5,9b-hexahydro-1H-benzo[e]indole]
Ki: 50 nM
